Reference: patent publication US20250115569A1, “SULFONAMIDE COMPOUNDS FOR THE TREATMENT OF NEUROLOGICAL CONDITIONS” (LARIO THERAPEUTICS LIMITED, priority 2021, published 2025)

Biological target: Cav2.3 (Homo sapiens, UniProt Q15878)
Assay: Human Cav2.3 channel calcium-influx assay
Type: cell-based
Details: Fluo8 fluorescence, HEK-293 T-Rex/Kir2.1/Cav2.3e cells, without pluronic acid, read-out: Cav2.3 (pIC50) (converted)
How it was run: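 Signal = peak fluorescence (5–130 s) minus baseline (1–2 s), normalized to neutral (0) and inhibitor (−100) controls as % effect. Depolarization used final 20 mM KCl, 130 mM NaCl, 2 mM CaCl2, after 3 min RT compound exposure (30 μM top, half-log, 8 points, 0.3% DMSO) in doxycycline-induced HEK-293 T-Rex/Kir2.1/Cav2.3e-β4-α2δ1 cells with Fluo8 NW.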

Sequence of Cav2.3 (Q15878 whole entry, looked up): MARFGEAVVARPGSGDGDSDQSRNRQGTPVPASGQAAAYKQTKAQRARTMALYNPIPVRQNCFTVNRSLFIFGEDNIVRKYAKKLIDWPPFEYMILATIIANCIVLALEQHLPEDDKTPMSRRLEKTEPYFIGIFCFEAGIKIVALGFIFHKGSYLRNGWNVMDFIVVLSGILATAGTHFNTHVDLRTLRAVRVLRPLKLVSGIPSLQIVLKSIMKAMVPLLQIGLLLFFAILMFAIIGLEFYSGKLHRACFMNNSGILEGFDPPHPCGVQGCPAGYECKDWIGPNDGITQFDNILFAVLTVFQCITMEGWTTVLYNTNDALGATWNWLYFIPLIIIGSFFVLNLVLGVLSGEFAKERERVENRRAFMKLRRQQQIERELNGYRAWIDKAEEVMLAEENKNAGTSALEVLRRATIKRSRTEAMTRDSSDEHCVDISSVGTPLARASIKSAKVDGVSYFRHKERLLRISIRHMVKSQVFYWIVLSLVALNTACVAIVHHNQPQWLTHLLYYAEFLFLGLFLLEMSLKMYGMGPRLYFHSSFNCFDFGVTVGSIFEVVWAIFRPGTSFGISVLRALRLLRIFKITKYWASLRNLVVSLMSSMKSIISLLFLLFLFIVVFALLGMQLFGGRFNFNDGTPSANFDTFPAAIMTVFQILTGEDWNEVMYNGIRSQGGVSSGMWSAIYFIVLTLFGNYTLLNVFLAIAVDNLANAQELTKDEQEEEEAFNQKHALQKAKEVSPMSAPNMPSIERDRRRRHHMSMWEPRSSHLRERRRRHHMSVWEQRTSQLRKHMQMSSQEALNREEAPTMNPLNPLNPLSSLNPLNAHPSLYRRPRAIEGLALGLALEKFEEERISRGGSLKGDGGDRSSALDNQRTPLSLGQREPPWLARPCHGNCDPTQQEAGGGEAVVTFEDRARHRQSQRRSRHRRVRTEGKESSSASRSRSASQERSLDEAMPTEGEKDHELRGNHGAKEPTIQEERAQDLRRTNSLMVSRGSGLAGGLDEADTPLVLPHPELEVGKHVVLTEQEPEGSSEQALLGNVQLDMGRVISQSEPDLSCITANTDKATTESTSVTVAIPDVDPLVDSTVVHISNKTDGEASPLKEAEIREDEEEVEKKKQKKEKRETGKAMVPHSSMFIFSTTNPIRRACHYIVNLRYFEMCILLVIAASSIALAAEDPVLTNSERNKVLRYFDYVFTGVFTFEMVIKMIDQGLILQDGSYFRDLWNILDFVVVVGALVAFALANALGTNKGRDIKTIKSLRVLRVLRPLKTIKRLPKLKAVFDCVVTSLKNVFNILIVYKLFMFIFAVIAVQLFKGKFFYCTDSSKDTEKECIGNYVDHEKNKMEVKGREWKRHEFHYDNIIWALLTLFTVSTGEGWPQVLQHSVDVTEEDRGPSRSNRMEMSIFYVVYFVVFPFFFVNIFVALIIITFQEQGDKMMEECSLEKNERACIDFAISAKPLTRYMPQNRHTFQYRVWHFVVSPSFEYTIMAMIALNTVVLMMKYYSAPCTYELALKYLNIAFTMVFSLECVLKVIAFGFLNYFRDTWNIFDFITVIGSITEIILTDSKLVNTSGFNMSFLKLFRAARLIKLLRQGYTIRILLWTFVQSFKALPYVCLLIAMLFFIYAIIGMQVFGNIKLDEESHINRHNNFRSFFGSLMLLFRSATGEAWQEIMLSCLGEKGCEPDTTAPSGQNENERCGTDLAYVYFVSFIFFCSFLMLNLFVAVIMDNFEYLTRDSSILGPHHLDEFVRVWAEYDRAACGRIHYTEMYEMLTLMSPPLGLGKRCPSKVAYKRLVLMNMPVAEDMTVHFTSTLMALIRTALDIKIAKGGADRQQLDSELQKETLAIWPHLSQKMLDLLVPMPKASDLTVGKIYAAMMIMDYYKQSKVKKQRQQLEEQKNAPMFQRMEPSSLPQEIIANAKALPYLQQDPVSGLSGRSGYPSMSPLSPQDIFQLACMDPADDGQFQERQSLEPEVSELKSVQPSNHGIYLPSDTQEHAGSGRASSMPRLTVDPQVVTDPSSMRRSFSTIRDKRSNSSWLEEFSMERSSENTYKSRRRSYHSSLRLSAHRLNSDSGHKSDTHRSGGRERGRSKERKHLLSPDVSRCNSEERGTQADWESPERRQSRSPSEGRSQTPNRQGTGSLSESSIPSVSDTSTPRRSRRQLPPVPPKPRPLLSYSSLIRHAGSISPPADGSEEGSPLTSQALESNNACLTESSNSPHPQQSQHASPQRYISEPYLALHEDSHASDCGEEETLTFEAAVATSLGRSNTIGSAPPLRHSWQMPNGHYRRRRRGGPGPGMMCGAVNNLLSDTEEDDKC

Row | IC50 | Compound
1 | 22.9 nM | CCN([C@H](c1ccc(OC)cc1)C(F)(F)F)S(=O)(=O)c1cncc(F)c1 [Example 257, (R)—N-ethyl-5-fluoro-N-(2,2,2-trifluoro-1-(4-methoxyphenyl)ethyl)pyridine-3-sulfonamide]
2 | 166 nM | CCN([C@H](c1ccc(F)cc1)C(F)(F)F)S(=O)(=O)c1ccc2[nH]nnc2c1 [Example 189, (R)—N-ethyl-N-(2,2,2-trifluoro-1-(4-fluorophenyl)ethyl)-1H-benzo[d][1,2,3]triazole-5-sulfonamide]
3 | 447 nM | CCN([C@H](c1ccc(F)cc1)C(F)(F)F)S(=O)(=O)c1ccc2nc(C)cn2n1 [Example 180, (R)—N-ethyl-2-methyl-N-(2,2,2-trifluoro-1-(4-fluorophenyl)ethyl)imidazo[1,2-b]pyridazine-6-sulfonamide]
4 | 309 nM | CCN([C@H](c1ccc(OC)cc1)C(F)(F)F)S(=O)(=O)C1CCOCC1 [Example 127, (R)—N-ethyl-N-(2,2,2-trifluoro-1-(4-methoxyphenyl)ethyl)tetrahydro-2H-pyran-4-sulfonamide]
5 | 3630 nM | CN(C(c1ccc(F)cc1)C(F)(F)F)S(=O)(=O)c1ccc(F)s1 (stereo not shown) [Example 17, 5-fluoro-N-methyl-N-(2,2,2-trifluoro-1-(4-fluorophenyl)ethyl)thiophene-2-sulfonamide]
6 | 1480 nM | CN([C@@H](c1ccc(F)cc1)C(F)(F)F)S(=O)(=O)c1cncc(C#N)c1 [Example 273, (S)-5-Cyano-N-methyl-N-(2,2,2-trifluoro-1-(4-fluorophenyl)ethyl)pyridine-3-sulfonamide]
7 | 11700 nM | CN([C@@H](c1ccc(F)cc1)C(F)(F)F)S(=O)(=O)c1ccc(F)s1 (stereo in doubt) [Example 18, 5-fluoro-N-methyl-N-(2,2,2-trifluoro-1-(4-fluorophenyl)ethyl)thiophene-2-sulfonamide]
8 | 692 nM | CCN([C@H](c1ccc(F)cc1)C(F)(F)F)S(=O)(=O)c1cc2ncccn2n1 [Example 148, (R)—N-ethyl-N-(2,2,2-trifluoro-1-(4-fluorophenyl)ethyl)pyrazolo[1,5-a]pyrimidine-2-sulfonamide]
9 | 18600 nM | CCN([C@H](c1ccc(F)cc1)C(F)(F)F)S(=O)(=O)c1n[nH]c2cccnc12 [Example 174, (R)—N-ethyl-N-(2,2,2-trifluoro-1-(4-fluorophenyl)ethyl)-1H-pyrazolo[4,3-b]pyridine-3-sulfonamide]
10 | 39.8 nM | CCN([C@H](c1ccc(F)cc1)C(F)(F)F)S(=O)(=O)c1cnccn1 [Example 265, (R)—N-ethyl-N-(2,2,2-trifluoro-1-(4-fluorophenyl)ethyl)pyrazine-2-sulfonamide]
11 | 40.7 nM | N#Cc1cncc(S(=O)(=O)N(CCF)[C@H](c2ccc(F)cc2)C(F)(F)F)c1 [Example 66, (R)-5-cyano-N-(2-fluoroethyl)-N-(2,2,2-trifluoro-1-(4-fluorophenyl)ethyl)pyridine-3-sulfonamide]
12 | 282 nM | CCN(C(c1ccc(F)cc1)C(F)(F)F)S(=O)(=O)c1ccc(C(=O)N(C)C)s1 (stereo not shown) [Example 25, 5-(N-ethyl-N-(2,2,2-trifluoro-1-(4-fluorophenyl)ethyl)sulfamoyl)-N,N-dimethylthiophene-2-carboxamide]
13 | 95.5 nM | CCN(C(c1ccc(F)cc1)C(F)(F)F)S(=O)(=O)c1cncc(C(N)=O)c1 (stereo in doubt) [Example 52, (S)-5-(N-ethyl-N-(2,2,2-trifluoro-1-(4-fluorophenyl)ethyl)sulfamoyl)nicotinamide]
14 | 234 nM | COc1ccc([C@@H](N(C)S(=O)(=O)c2cncc(F)c2)C(F)(F)F)cc1 [Example 221, (R)-5-fluoro-N-methyl-N-(2,2,2-trifluoro-1-(4-methoxyphenyl)ethyl)pyridine-3-sulfonamide]
15 | 7240 nM | CCN([C@@H](c1ccc(F)cc1)C(F)(F)F)S(=O)(=O)c1cnnc(OC)c1 [Example 122, (S)—N-ethyl-6-methoxy-N-(2,2,2-trifluoro-1-(4-fluorophenyl)ethyl)pyridazine-4-sulfonamide]
16 | 427 nM | CN([C@H](c1ccc(Cl)cc1)C(F)(F)F)S(=O)(=O)c1cnc2ccnn2c1 [Example 201, (R)—N-(1-(4-chlorophenyl)-2,2,2-trifluoroethyl)-N-methylpyrazolo[1,5-a]pyrimidine-6-sulfonamide]
17 | 191 nM | CN([C@H](c1ccc(Cl)cc1)C(F)(F)F)S(=O)(=O)c1cccnn1 [Example 209, (R)—N-(1-(4-chlorophenyl)-2,2,2-trifluoroethyl)-N-methylpyridazine-3-sulfonamide]
18 | 240 nM | CCN(C(c1ccc(F)cc1)C(F)(F)F)S(=O)(=O)c1csc(C#N)n1 (stereo not shown) [Example 50, 2-cyano-N-ethyl-N-(2,2,2-trifluoro-1-(4-fluorophenyl)ethyl)thiazole-4-sulfonamide]
19 | 1050 nM | CN([C@H](c1ccc(Cl)cc1)C(F)(F)F)S(=O)(=O)c1ccc(O)nn1 [Example 208, (R)—N-(1-(4-chlorophenyl)-2,2,2-trifluoroethyl)-6-hydroxy-N-methylpyridazine-3-sulfonamide]

Row | IC50 | Compound
20 | 240 nM | CN([C@H](c1ccc(F)cc1)C(F)(F)F)S(=O)(=O)c1cnc2ccnn2c1 [Example 183, (R)—N-methyl-N-(2,2,2-trifluoro-1-(4-fluorophenyl)ethyl)pyrazolo[1,5-a]pyrimidine-6-sulfonamide]
21 | 794 nM | CCN([C@H](c1ccc(F)cc1)C(F)(F)F)S(=O)(=O)c1cnc2[nH]nnc2c1 [Example 166, (R)—N-ethyl-N-(2,2,2-trifluoro-1-(4-fluorophenyl)ethyl)-1H-[1,2,3]triazolo[4,5-b]pyridine-6-sulfonamide]
22 | 355 nM | CCN(C(c1ccc(F)cc1)C(F)(F)F)S(=O)(=O)c1ccc2c(c1)S(=O)(=O)CC2 (stereo not shown) [Example 28, N-ethyl-N-(2,2,2-trifluoro-1-(4-fluorophenyl)ethyl)-2,3-dihydrobenzo[b]thiophene-6-sulfonamide 1,1-dioxide]
23 | 9330 nM | COc1ccc([C@@H](N(C)S(=O)(=O)c2cn3ccncc3n2)C(F)(F)F)cc1 [Example 196, (R)—N-methyl-N-(2,2,2-trifluoro-1-(4-methoxyphenyl)ethyl)imidazo[1,2-a]pyrazine-2-sulfonamide]
24 | 891 nM | COc1cc(S(=O)(=O)N(C)[C@H](c2ccc(Cl)cc2)C(F)(F)F)c(OC)nn1 [Example 228, (R)—N-(1-(4-chlorophenyl)-2,2,2-trifluoroethyl)-3,6-dimethoxy-N-methylpyridazine-4-sulfonamide]
25 | 35.5 nM | [2H][C@@](c1ccc(Cl)cc1)(N(C)S(=O)(=O)c1cncc(C#N)c1)C(F)(F)F [Example 242, N-(1-(4-chlorophenyl)-2,2,2-trifluoroethyl-1-d)-5-cyano-N-methylpyridine-3-sulfonamide]
26 | 468 nM | CCN(C(c1ccc(F)cc1)C(F)(F)F)S(=O)(=O)c1cnc(C(N)=O)s1 (stereo not shown) [Example 46, 5-(N-ethyl-N-(2,2,2-trifluoro-1-(4-fluorophenyl)ethyl)sulfamoyl)thiazole-2-carboxamide]
27 | 302 nM | CCN([C@H](c1ccc(F)cc1)C(F)(F)F)S(=O)(=O)c1ccnc2[nH]ccc12 [Example 175, (R)—N-ethyl-N-(2,2,2-trifluoro-1-(4-fluorophenyl)ethyl)-1H-pyrrolo[2,3-b]pyridine-4-sulfonamide]
28 | 3550 nM | CCN([C@@H](c1ccc(F)cc1)C(F)(F)F)S(=O)(=O)c1cncc(F)c1 [Example 260, (S)—N-ethyl-5-fluoro-N-(2,2,2-trifluoro-1-(4-fluorophenyl)ethyl)pyridine-3-sulfonamide]
29 | 13200 nM | CN([C@H](c1ccc(F)cc1)C(F)(F)F)S(=O)(=O)c1ccc2nnc(C(F)(F)F)n2n1 [Example 170, (R)—N-methyl-N-(2,2,2-trifluoro-1-(4-fluorophenyl)ethyl)-3-(trifluoromethyl)-[1,2,4]triazolo[4,3-b]pyridazine-6-sulfonamide]
30 | 562 nM | CCN([C@H](c1ccc(F)cc1)C(F)(F)F)S(=O)(=O)c1cnc2[nH]ccc2n1 [Example 140, (R)—N-ethyl-N-(2,2,2-trifluoro-1-(4-fluorophenyl)ethyl)-5H-pyrrolo[2,3-b]pyrazine-2-sulfonamide]
31 | 100 nM | CN([C@H](c1ccc(F)cc1)C(F)(F)F)S(=O)(=O)c1cncc(C#N)c1 [Example 274, (R)-5-Cyano-N-methyl-N-(2,2,2-trifluoro-1-(4-fluorophenyl)ethyl)pyridine-3-sulfonamide]
32 | 955 nM | CCN(C(c1ccc(F)cc1)C(F)(F)F)S(=O)(=O)c1nccs1 (stereo not shown) [Example 81, N-ethyl-N-(2,2,2-trifluoro-1-(4-fluorophenyl)ethyl)thiazole-2-sulfonamide]
33 | 11.7 nM | CCN([C@H](c1ccc(F)cc1)C(F)(F)F)S(=O)(=O)c1cncc(F)c1 [Example 261, (R)—N-ethyl-5-fluoro-N-(2,2,2-trifluoro-1-(4-fluorophenyl)ethyl)pyridine-3-sulfonamide]
34 | 282 nM | CN([C@H](c1ccc(Cl)cc1)C(F)(F)F)S(=O)(=O)c1cnc2ncsc2c1 [Example 200, (R)—N-(1-(4-chlorophenyl)-2,2,2-trifluoroethyl)-N-methylthiazolo[4,5-b]pyridine-6-sulfonamide]
35 | 19.1 nM | CN([C@H](c1ccc(Cl)cc1)C(F)(F)F)S(=O)(=O)c1cnc2ccccn12 [Example 187, (R)—N-(1-(4-chlorophenyl)-2,2,2-trifluoroethyl)-N-methylimidazo[1,2-a]pyridine-3-sulfonamide]
36 | 6760 nM | CCN([C@@H](c1ccc(F)cc1)C(F)(F)F)S(=O)(=O)c1ccc(=O)n(C)c1 [Example 102, (S)—N-ethyl-1-methyl-6-oxo-N-(2,2,2-trifluoro-1-(4-fluorophenyl)ethyl)-1,6-dihydropyridine-3-sulfonamide]
37 | 3800 nM | CCN([C@@H](c1ccc(F)cc1)C(F)(F)F)S(=O)(=O)c1cccc(C)n1 [Example 32, (S)—N-ethyl-6-methyl-N-(2,2,2-trifluoro-1-(4-fluorophenyl)ethyl)pyridine-2-sulfonamide]
